The source of these data is ChEMBL document CHEMBL1275373, “Identification by high-throughput screening of inhibitors of Schistosoma mansoni NAD(+) catabolizing enzyme” (Bioorg Med Chem, 2010).

pIC50, pKi: −log10 of the molar value. Active and inactive are the calls of the source. No cut-off for these calls is given here.

System in the first assay: not listed separately
The experiment in a line: Inhibition of Schistosoma mansoni recombinant NAD+ glycohydrolase expressed in Pichia pastoris by continuous fluorometric method.
By pIC50 is commonly meant −log10 of the IC50, conventionally taken in molar units. Turning to `Oc1ccc(-c2[o+]c3cc(O)c(O)c(O)c3cc2O)cc1O` [QUERCETAGETINIDIN], the pIC50 was 5.21.
With `COc1cc(-c2[o+]c3cc(O)cc(O)c3cc2O)cc(O)c1O` [PETUNIDIN], the pIC50 is 4.42.
As to `OC[C@H]1O[C@@H](Oc2cc3c(O)cc(O)cc3[o+]c2-c2ccc(O)c(O)c2)[C@H](O)[C@@H](O)[C@@H]1O` [KUROMANIN], the pIC50 was 5.09.
The same measure, in the same setting: the same measure for `Oc1ccc2cc(O)c(-c3ccc(O)c(O)c3)[o+]c2c1` [FISETINIDIN]: 5.19; for `Oc1ccc(-c2[o+]c3cc(O)cc(O)c3cc2O)cc1` [PELARGONIDIN]: 5.36; for `COc1ccc(-c2ccc3c(O)cc(O)cc3[o+]2)cc1O` [DIOSMETINIDIN]: 5.00.
Still for that read-out and setting: the same measure for `O=C1c2c(O)cc(O)cc2OC(c2ccc(O)c(O)c2)C1O` (configuration not stated) [TAXIFOLIN]: 4.71; for `Oc1cc(O)c2cc(O)c(-c3ccc(O)c(O)c3)[o+]c2c1` [CYANIDIN]: 5.64; for `O=c1c(O)c(-c2ccc(O)c(O)c2)oc2cc(O)cc(O)c12` [QUERCETIN]: 5.41.
Same read-out and setting: next, `O=c1c(O)c(-c2ccc(O)c(O)c2)oc2cc(O)c(O)c(O)c12` [QUERCETAGETIN]: 5.89.
`COc1cc(-c2[o+]c3cc(O)cc(O)c3cc2O)cc(OC)c1O` [MALVIDIN]: the pIC50 was 5.10.
Take `Oc1cc(O)c2c(c1)OC(c1ccc(O)c(O)c1)C(O)C2` (configuration not stated) [CATECHIN]: the negative logarithm of the IC50 (pIC50) is less than 4.00.
For the compound `Oc1cc(O)c2ccc(-c3ccc(O)c(O)c3)[o+]c2c1` [LUTEOLINIDIN], the pIC50 is 5.23.
Same read-out and setting: next, `Oc1cc(O)c2cc(O)c(-c3cc(O)c(O)c(O)c3)[o+]c2c1` [DELPHINIDIN]: 5.22; `Oc1ccc(/C=C/c2cc(O)cc(O)c2)cc1` [RESVERATROL]: less than 4.00; `O=c1c(O)c(-c2cc(O)c(O)c(O)c2)oc2cc(O)ccc12` [ROBINETIN]: 5.24.
Still for that read-out and setting: next, `O=c1cc(-c2ccc(O)c(O)c2)oc2cc(O)cc(O)c12` [LUTEOLIN]: 5.08.
The same measure, in the same setting: the same measure for `Oc1cc(O)cc(/C=C/c2ccc(O)c(O)c2)c1` [PICEATANNOL]: less than 4.00; for `O=c1c(O)c(-c2cc(O)c(O)c(O)c2)oc2cc(O)cc(O)c12` [MYRICETIN]: 4.66.

In the next assay the test system is Schistosoma mansoni. The experiment in a line: Inhibition of Schistosoma mansoni recombinant NAD+ glycohydrolase expressed in Pichia pastoris at up to 100 uM by continuous fluorometric method.
As a reminder, the inhibition is the share of the control response that was lost under treatment. With `O=C1NC(=O)c2cccc3cccc1c23`, the inhibition is less than 10%.
Consider `O=C(C1CCCCC1)N1CC(=O)N2CCc3ccccc3C2C1` (configuration not stated), for which the inhibition is less than 10%.
With `CCN(CC)CCCC(C)Nc1ccnc2cc(Cl)ccc12` (configuration not stated), the result was inactive.
Regarding `CN(C)CC(=O)Nc1ccc2[nH]c(=O)c3ccccc3c2c1`, the inhibition is less than 10%.
Regarding `OC(c1cc(C(F)(F)F)nc2c(C(F)(F)F)cccc12)C1CCCCN1` (configuration not stated), the result was inactive.
Turning to `Cc1ccc(C(=O)Nc2ccc(S(=O)(=O)O)c3cc(S(=O)(=O)O)cc(S(=O)(=O)O)c23)cc1NC(=O)c1cccc(NC(=O)Nc2cccc(C(=O)Nc3cc(C(=O)Nc4ccc(S(=O)(=O)O)c5cc(S(=O)(=O)O)cc(S(=O)(=O)O)c45)ccc3C)c2)c1`, the inhibition was less than 10%.
Take `COc1cc(/C=C/C(=O)CC(=O)/C=C/c2ccc(O)c(OC)c2)ccc1O`: the inhibition is less than 10%.

Target in another assay: not listed separately
Description: Competitive inhibition of Schistosoma mansoni recombinant NAD+ glycohydrolase expressed in Pichia pastoris by Michaelis-Menten equation analysis.
The pKi is the Ki on a negative log10 scale, so that one unit is a factor of ten. As to `Oc1cc(O)c2cc(O)c(-c3ccc(O)c(O)c3)[o+]c2c1` [CYANIDIN], the pKi was 5.68.
